Data on 15 compounds can be found in US20250188085A1, “COMPOSITIONS AND METHODS FOR INHIBITION OF RAS” (THERAS, INC., priority 2022, published 2025).

SMILES strings stand for the structures. Like-named read-outs stand apart in the source and are kept apart here. Some results are limits rather than exact numbers.

Assay [1] has as its target T1, GppNHp-loaded KRAS4b (amino acids 1-169) G12C/C118S protein (Homo sapiens, UniProt P01116, C118S/G12C).
T1 construct: KRAS4b (amino acids 1-169) G12C/C118S protein; made in house
As to the kind of experiment: Covalent cysteine 12 modification by MALDI-TOF MS, GppNHp-loaded KRAS G12C. The assay is classed as binding. Particulars: 15 minutes reaction time point. In a few lines: (§1)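 KRAS4b 1-169 G12C/C118S loaded with GDP, GppNHp or GTP was used at 1 μM in 20 mM HEPES, 150 mM NaCl, 1 mM MgCl2, pH 7.3, and incubated with compound (5 mM DMSO stock) at room temperature in the dark. % modification at 15 min is adduct peak height over total protein peak heights by linear-mode MALDI-TOF.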

Assay [2] concerns the target T2, GTP-loaded KRAS4b (amino acids 1-169) G12C/C118S protein (Homo sapiens, UniProt P01116, C118S/G12C).
T2 construct: KRAS4b (amino acids 1-169) G12C/C118S protein; made in house
As to the kind of experiment: Covalent cysteine 12 modification by MALDI-TOF MS, GTP-loaded KRAS G12C. The assay is classed as binding. Particulars: 15 minutes reaction time point. The essentials: as §1

In assay [3] the target is T3, GDP-loaded KRAS4b (amino acids 1-169) G12C/C118S protein (Homo sapiens, UniProt P01116, C118S/G12C).
T3 construct: KRAS4b (amino acids 1-169) G12C/C118S protein; made in house
As to the kind of experiment: Covalent cysteine 12 modification by MALDI-TOF MS, GDP-loaded KRAS G12C. The assay is classed as binding. Particulars: 15 minutes reaction time point. The essentials:
as §1

The target in assay [4] is T4, Avi-KRAS G12C (1-169) GppNHp/RAF1 RBD-3×FLAG (52-151) (Homo sapiens, UniProt P01116, G12C).
T4 construct: Avi-KRAS G12C (1-169) GppNHp/RAF1 RBD-3×FLAG (52-151)
Put plainly: Raf1 RBD-KRAS G12C-GppNHp disruption (protein:protein interaction HTRF assay). The assay is classed as biochemical. The essentials:
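HTRF measuring disruption of 50 nM Avi-KRAS G12C (1-169) loaded with GppNHp binding RAF1 RBD-3×FLAG (52-151), in pH 7.5 Tris buffer with 5 mM MgCl2, 0.1% BSA, 10% DMSO. KRAS preincubated with compound 1 h, then RBD 1 h, then detection reagents 1 h, all at room temperature. Compound titration 30-0.02 μM; activity expressed as percent of DMSO control.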
Background: TR-FRET usually uses a lanthanide donor and a delayed reading to cut background.

The subject of assay [5] is pERK in NCI-H358 cells. Put plainly: Cell-based pERK HTRF assay. Conditions: 30 min incubation, read-out: pERK in NCI-H358 cell inhibition IC50. The essentials: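 Cells seeded at 4×10^4/well in RPMI with 10% FBS, then next day treated for 30 min with a 9-point, 3-fold series from 75 μM top concentration at 0.25% DMSO. Lysates were read for pERK by HTRF (d2/Eu cryptate antibodies) after 4–24 h at room temperature, emission at 615 nm.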

Usually IC50 stands for the midpoint of a concentration-inhibition curve. Take `C=CC(=O)N1CC[C@@H](Oc2nc(OC[C@@]34CCCN3C[C@H](F)C4)nc3c(C#N)c(-c4ccc(F)c5sc(N)c(C#N)c45)ccc23)[C@H]1C` [Compound 104]: the “GppNHp-KRAS G12C percent of modification” value in assay [1] is recorded as “C (10%≤modification <50%)”. Further, the “GTP-KRAS G12C percent of modification” value in assay [2] is “C (10%≤modification <50%)”. Moreover, in assay [3], the “GDP-KRAS G12C percent of modification” value is recorded as “A (percent of modification ≥70%)”. Besides, the half-maximal inhibitory concentration (IC50) in assay [4] is no more than 500 nM; in assay [5] (Homo sapiens, NCI-H358, 0.5 h), 100 to 1000 nM.
Consider `C=CC(=O)N1C[C@@H](F)[C@@H](Oc2nc(OC[C@@]34CCCN3C[C@H](F)C4)nc3c(F)c(-c4ccc(F)c5sc(N)c(C#N)c45)ncc23)C1` [Compound 70], for which, in assay [1], the “GppNHp-KRAS G12C percent of modification” value is “A (percent of modification ≥70%)”. Besides, the “GTP-KRAS G12C percent of modification” value in assay [2] is on record as “B (50≤percent of modification <70%)”. The “GDP-KRAS G12C percent of modification” value in assay [3] is listed as “A (percent of modification ≥70%)”. For the same compound, the IC50 is no more than 500 nM in assay [4] and no more than 100 nM in assay [5] (Homo sapiens, NCI-H358, 0.5 h).
`C=CC(=O)N1CC[C@@H](Oc2nc(OC[C@@]34CCCN3C[C@H](F)C4)nc3cc(-c4ccc(F)c5sc(N)c(C#N)c45)ccc23)[C@H]1C` [Compound 103]: the “GppNHp-KRAS G12C percent of modification” value in assay [1] was “B (50≤percent of modification <70%)”. Also, the “GTP-KRAS G12C percent of modification” value in assay [2] is “C (10%≤modification <50%)”. The “GDP-KRAS G12C percent of modification” value in assay [3] is recorded as “A (percent of modification ≥70%)”. Besides, the IC50 was no more than 500 nM in assay [4] and no more than 100 nM in assay [5] (Homo sapiens, NCI-H358, 0.5 h).
In the case of `C=CC(=O)N1CC[C@@H](Oc2nc(OC[C@@]34CCCN3C[C@H](F)C4)nc3c(F)c(-c4ccc(F)c5sc(N)c(C#N)c45)c(Cl)cc23)[C@H]1C` [Compound 94], in assay [1], the “GppNHp-KRAS G12C percent of modification” value is “A (percent of modification ≥70%)”. For the same compound, the “GTP-KRAS G12C percent of modification” value in assay [2] is “B (50≤percent of modification <70%)”. The “GDP-KRAS G12C percent of modification” value in assay [3] is “A (percent of modification ≥70%)”. In addition, the half-maximal inhibitory concentration (IC50) is no more than 500 nM in assay [4] and no more than 100 nM in assay [5] (Homo sapiens, NCI-H358, 0.5 h).
Consider `C=CC(=O)N1C[C@H](Oc2nc(OC[C@@]34CCCN3C[C@H](F)C4)nc3cc(-c4ccc(F)c5sc(N)c(C#N)c45)c(C(F)(F)F)nc23)C[C@H]1C` [Compound 84], for which the “GppNHp-KRAS G12C percent of modification” value in assay [1] is listed as “C (10%≤modification <50%)”. Also, the “GTP-KRAS G12C percent of modification” value in assay [2] is recorded as “C (10%≤modification <50%)”. In addition, the “GDP-KRAS G12C percent of modification” value in assay [3] is “C (10%≤modification <50%)”. Further, the IC50 was no more than 500 nM in assay [4] and no more than 100 nM in assay [5].
On to `C=CC(=O)N1C[C@H](Oc2nc(OC[C@@]34CCCN3C[C@H](F)C4)nc3cc(-c4ccc(F)c5sc(N)c(C#N)c45)c(C(F)(F)F)nc23)C[C@H]1C` [Compound 83], for which, in assay [1], the “GppNHp-KRAS G12C percent of modification” value is on record as “B (50≤percent of modification <70%)”. In addition, in assay [2], the “GTP-KRAS G12C percent of modification” value is “C (10%≤modification <50%)”. The “GDP-KRAS G12C percent of modification” value in assay [3] was “A (percent of modification ≥70%)”. Further, the half-inhibitory concentration (IC50) in assay [4] was no more than 500 nM; in assay [5] (Homo sapiens, NCI-H358, 0.5 h), no more than 100 nM.
Taken in the same sequence, the figures for `C=CC(=O)N1C[C@H](Oc2nc(OC[C@@]34CCCN3C[C@H](F)C4)nc3cc(-c4ccc(F)c5sc(N)nc45)c(C(F)(F)F)cc23)[C@@H](F)C1` [Compound 59] were “B (50≤percent of modification <70%)”, “C (10%≤modification <50%)”, “A (percent of modification ≥70%)”, no more than 500 nM and no more than 100 nM.
Take `C=CC(=O)N1CC[C@@H](Oc2nc(OC[C@@]34CCCN3C[C@H](F)C4)nc3cc(-c4ccc(F)c5sc(N)nc45)c(C(F)(F)F)cc23)[C@H]1C` [Compound 60]: in assay [1], the “GppNHp-KRAS G12C percent of modification” value is “B (50≤percent of modification <70%)”. In addition, the “GTP-KRAS G12C percent of modification” value in assay [2] was “C (10%≤modification <50%)”. For the same compound, in assay [3], the “GDP-KRAS G12C percent of modification” value is on record as “A (percent of modification ≥70%)”. Moreover, the IC50 was no more than 500 nM in assay [4] and no more than 100 nM in assay [5] (Homo sapiens, NCI-H358, 0.5 h).
Taken in the same sequence, the figures for `C=CC(=O)N1C[C@H](Oc2nc(OC[C@@]34CCCN3C[C@H](F)C4)nc3c(F)c(-c4ccc(F)c5sc(N)c(C#N)c45)c(C(F)(F)F)cc23)[C@@H](F)C1` [Compound 67] were “B (50≤percent of modification <70%)”, “B (50≤percent of modification <70%)”, “B (50≤percent of modification <70%)”, no more than 500 nM and no more than 100 nM.
As to `C=CC(=O)N1CC[C@@H](Oc2nc(OC[C@@]34CCCN3C[C@H](F)C4)nc3cc(-c4ccc(F)c5sc(N)c(C#N)c45)c(F)cc23)[C@@H]1COC` [Compound 122], the “GppNHp-KRAS G12C percent of modification” value in assay [1] is listed as “D (percent of modification <10%)”. In addition, the “GTP-KRAS G12C percent of modification” value in assay [2] is reported as “D (percent of modification <10%)”. The “GDP-KRAS G12C percent of modification” value in assay [3] is “C (10%≤modification <50%)”. The concentration for half-maximal inhibition (IC50) in assay [4] was greater than 20000 nM; in assay [5] (Homo sapiens, NCI-H358, 0.5 h), greater than 1000 nM.
`C=CC(=O)N1CC[C@@H](Oc2nc(OC[C@@]34CCCN3C[C@H](F)C4)nc3cc(-c4ccc(F)c5sc(N)c(C#N)c45)c(C#N)cc23)[C@@H]1COC` [Compound 128]: the “GppNHp-KRAS G12C percent of modification” value in assay [1] is “D (percent of modification <10%)”. Further, the “GTP-KRAS G12C percent of modification” value in assay [2] is listed as “D (percent of modification <10%)”. Besides, the “GDP-KRAS G12C percent of modification” value in assay [3] is on record as “C (10%≤modification <50%)”. Besides, the IC50 in assay [4] is greater than 20000 nM; in assay [5] (Homo sapiens, NCI-H358, 0.5 h), greater than 1000 nM.
`C=CC(=O)N1CC[C@@H](Oc2nc(OC[C@@]34CCCN3C[C@H](F)C4)nc3cc(-c4ccc(F)c5sc(N)c(C#N)c45)c(C#N)cc23)[C@H]1COC` [Compound 112]: the “GppNHp-KRAS G12C percent of modification” value in assay [1] is reported as “A (percent of modification ≥70%)”. Besides, in assay [2], the “GTP-KRAS G12C percent of modification” value is recorded as “C (10%≤modification <50%)”. Further, the “GDP-KRAS G12C percent of modification” value in assay [3] is recorded as “A (percent of modification ≥70%)”. Moreover, the IC50 in assay [4] is no more than 500 nM; in assay [5] (Homo sapiens, NCI-H358, 0.5 h), no more than 100 nM.
`C=CC(=O)N1C[C@@H](F)[C@@H](Oc2nc(OC[C@@]34CCCN3C[C@H](F)C4)nc3c(F)c(-c4ccc(F)c5sc(N)nc45)ccc23)C1` [Compound 82]: in assay [1], the “GppNHp-KRAS G12C percent of modification” value is listed as “B (50≤percent of modification <70%)”. In addition, the “GTP-KRAS G12C percent of modification” value in assay [2] was “C (10%≤modification <50%)”. For the same compound, the “GDP-KRAS G12C percent of modification” value in assay [3] is “A (percent of modification ≥70%)”. In addition, the IC50 was no more than 500 nM in assay [4] and no more than 100 nM in assay [5] (Homo sapiens, NCI-H358, 0.5 h).
On the same counts, the results for `C=CC(=O)N1C[C@H](Oc2nc(OC[C@@]34CCCN3C[C@H](F)C4)nc3c(F)c(-c4ccc(F)c5sc(N)nc45)c(C(F)(F)F)cc23)C[C@@H]1CO` [Compound 69] are “A (percent of modification ≥70%)”, “C (10%≤modification <50%)”, “A (percent of modification ≥70%)”, no more than 500 nM and no more than 100 nM.
On the same counts, the results for `C=CC(=O)N1CC[C@@H](Oc2nc(OC[C@@]34CCCN3C[C@H](F)C4)nc3c(F)c(-c4ccc(F)c5sc(N)c(C#N)c45)c(Cl)cc23)[C@@H]1CC` [Compound 117] are “D (percent of modification <10%)”, “D (percent of modification <10%)”, “C (10%≤modification <50%)”, greater than 20000 nM and greater than 1000 nM.
